The text below walks through data of US20240216364A1, “STRONG POTENTIATION OF TLR3 AGONISTS EFFECTS USING FXR AGONISTS AS A COMBINED TREATMENT” (ENYO PHARMA, priority 2021, published 2024).

For this experiment, the system named is HBV. Nature of the experiment: HBV replication in HBV-infected fresh primary human hepatocytes (PHH): secreted HBsAg, HBeAg, HBV DNA. The format is cell-based, HBV (genotype D). The note with it: FIG. 5. On the procedure:
Primary human hepatocytes (PHH) were freshly prepared from human liver resection obtained from the Centre Léon Bérard (Lyon) with French ministerial authorizations (AC 2013-1871, DC 2013-1870, AFNOR NF 96 900 sept 2011) as previously described (Lecluyse, E. L. & Alexandre, E. Methods Mol. Biol. Clifton NJ 640, 57-82 (2010)).
HBV stocks (genotype D, Genbank ID U95551) were prepared using the HepAD38 cell line according to previously described protocols (Ladner, S. K. et al. Antimicrob. Agents Chemother. 41, 1715-1720 (1997)). Supernatants containing HBV particles were clarified (0.45 μm filter) and concentrated with 8% PEG 8000 (Sigma-Aldrich). HBV DNA was quantified using the AmpliPrep/COBAS® TaqMan® HBV Test (Roche).
EYP-001 was provided by Enyo Pharma. A stock at 30 mM was constituted in DMSO, and working concentrations were obtained by dilution into the culture medium extemporaneously. Riboxxol was purchased from Riboxx (Germany). It is a synthetic double-stranded RNA (dsRNA), has a length of 50 bp, and is composed of cytosines, inosines and guanosines. It is a pure agonist of TLR3, with no leakiness toward RIG-1 or MDA5 (Lucifora J et al. Sci Rep. 2018 Mar. 29; 8(1):5390). A stock solution was constituted at 1 mg/mL in RNAse-free water. Poly(I:C) High and Low molecular weight were purchased from InvivoGen (USA). They are both double stranded RNA composed of inosine and cytosine (Low: 0.2 to 1 kb, High: 1.5 to 8 kb) and are TLR3 agonists. A stock solution at 1 mg/mL was constituted in RNAse-free water. Tropifexor, Cilofexor and Nidufexor were purchased from TargetMol (USA), GW4064 from Selleckchem (USA), Fexaramine and OCA from Euromedex (France). Those 6 FXR agonists were used as described below. All the stock solutions were at 10 mM (Cilofexor, Tropifexor, Nidufexor, GW4064) or 50 mM (Fexaramine, OCA) in DMSO.
HBs and HBe antigens secreted in cells supernatant were quantified, after required dilutions, with Autobio kits (AutoBio, China) according to manufacturer's protocol.
To determine the combined impact of FXR agonists and TLR3 agonists on HBV infection, in vitro infections were performed in primary human hepatocytes (PHH). PHH are naturally susceptible to infection with HBV virions produced in vitro, leading to very high levels of replication of the virus. Freshly prepared and seeded PHH were infected with HBV at a multiplicity of infection of 500 vge/cell. From day 4 to 12 post-infection, cells were treated with the FXR agonist EYP001 at 30 μM, or with a TLR3 agonist (Riboxxol) at 5 μg/mL, or with the combination of the FXR agonist EYP001 at 30 μM with a TLR3 agonist (Riboxxol) at 5 μg/mL, or with the vehicle. Supernatants were harvested at day 12 for secreted HBV DNA and secreted antigens (HBsAg and HBeAg) quantification. Results are expressed as the mean+SD of two independent experiments, each performed with at least three biological replicates. […]
A third experiment was conducted the same way, in the same model of HBV infected PHH. In this experiment, 6 different FXR agonists (Tropifexor at 1 μM, Cilofexor at 10 μM, Nidufexor at 10 μM, GW4064 at 10 μM, Fexaramine at 10 μM and OCA at 10 μM) were combined with the TLR3 agonist Riboxxol at 5 μg/mL.

Where [1] appears, read: FXR agonist 10 μM combined with Riboxxol 5 μg/mL.
Where [2] appears, read: FXR agonist 1 μM combined with Riboxxol 5 μg/mL.

In the case of `O=C(O)c1ccnc(N2CC(O)(c3ccc(OCc4c(-c5c(Cl)cccc5Cl)noc4C4CC4)cc3Cl)C2)c1` [Cilofexor, 2-[3-[2-Chloro-4-[[5-cyclopropyl-3-(2,6-dichlorophenyl)-4-isoxazolyl]methoxy]phenyl]-3-hydroxy-1-azetidinyl]-4-pyridinecarboxylic acid], under setting [1], the “HBeAg level, effect of the combination versus the TLR3 agonist alone” value is “improve the antiviral effects” and the “HBsAg level, effect of the combination versus the TLR3 agonist alone” value is given as “improve the antiviral effects”.
On to `COC(=O)/C=C/c1cccc(N(Cc2ccc(-c3ccc(N(C)C)cc3)cc2)C(=O)C2CCCCC2)c1` [Fexaramine], for which, under setting [1], the “HBeAg level, effect of the combination versus the TLR3 agonist alone” value is reported as “improve the antiviral effects” and the “HBsAg level, effect of the combination versus the TLR3 agonist alone” value was “improve the antiviral effects”.
Turning to `CC(C)c1onc(-c2c(Cl)cccc2Cl)c1COc1ccc(/C=C/c2cccc(C(=O)O)c2)c(Cl)c1` [GW4064, 3-[2-[2-Chloro-4-[[3-(2,6-dichlorophenyl)-5-(1-methylethyl)-4-isoxazolyl]methoxy]phenyl]ethenyl]benzoic acid], under setting [1], the “HBeAg level, effect of the combination versus the TLR3 agonist alone” value is “improve the antiviral effects” and the “HBsAg level, effect of the combination versus the TLR3 agonist alone” value is “improve the antiviral effects”.
Turning to `Cn1nc(C(=O)N(Cc2ccccc2)Cc2ccc(C(=O)O)cc2)c2c1-c1cc(Cl)ccc1OC2` [Nidufexor, 4-[(N-benzyl-8-chloro-1-methyl-1,4-dihydro[1]benzopyrano[4,3-c]pyrazole-3-carboxamido)methyl]benzoic acid], under setting [1], the “HBeAg level, effect of the combination versus the TLR3 agonist alone” value is recorded as “improve the antiviral effects” and the “HBsAg level, effect of the combination versus the TLR3 agonist alone” value was “improve the antiviral effects”.
For `CC[C@H]1[C@@H](O)[C@@H]2[C@H](CC[C@]3(C)[C@@H]([C@H](C)CCC(=O)O)CC[C@@H]23)[C@@]2(C)CC[C@@H](O)C[C@@H]12` [OCA, Cholan-24-oic acid, 6-ethyl-3,7-dihydroxy-, (3α,5β,6α,7α)-], under setting [1], the “HBeAg level, effect of the combination versus the TLR3 agonist alone” value is recorded as “improve the antiviral effects” and the “HBsAg level, effect of the combination versus the TLR3 agonist alone” value is on record as “improve the antiviral effects”.
Take `O=C(O)c1cc(F)c2nc(N3[C@@H]4CC[C@H]3C[C@@H](OCc3c(-c5ccccc5OC(F)(F)F)noc3C3CC3)C4)sc2c1` [Tropifexor, 2-(3-((5-cyclopropyl-3-(2-(trifluoromethoxy)phenyl)isoxazol-4-yl)methoxy)-8-azabicyclo[3.2.1]octan-8-yl)-4-fluorobenzo[d]thiazole-6-carboxylic acid]: under setting [2], the “HBeAg level, effect of the combination versus the TLR3 agonist alone” value was “improve the antiviral effects” and the “HBsAg level, effect of the combination versus the TLR3 agonist alone” value is listed as “improve the antiviral effects”.
